The nature of data set [1]: moisture sorption (dynamic vapor sorption) and visual onset of crystallization in microwave-dried amorphous trehalose/salt samples at 61% RH. Type of data set: physicochemical. On the procedure:
A stock solution of 30.8 wt % trehalose (1.3 M), made in 1×TE buffer (1×Tris-EDTA buffer, pH 8.0, consisting of 10 mM Tris-HCl and 1 mM EDTA), was used to prepare solutions with varying amounts of phosphate salts (salt to trehalose molar ratio (R) is 1:4.8, 1:2 and 1:0.7). […] The end moisture content was measured below 0.105 gH2O/gdw which is known to produce a glass transition temperature higher than room temperature in the case of aqueous trehalose solutions. […] Specifically, in order to investigate moisture sorption in different trehalose/salt compositions at the 61% relative humidity, a closed environment with a stable relative humidity over the test duration was prepared. Supersaturated salt solutions of sodium bromide (prepared by following ASTM Protocol E 104-02) are capable of producing an environment with constant relative humidity of 61%. […] glass jars with rubber seals and clamps or Mason glass jars with screw caps are used as controlled humidity vessels (1 L, total height 159 mm, mouth Dia. 89 mm). The dynamic vapor sorption (DVS) method was used to monitor moisture sorption in the microwave-processed trehalose samples before and after crystallization (crystals were detected visually in samples). The moisture uptake in trehalose/salt samples were monitored to evaluate the effect of salts on end moisture content at time zero after microwave processing at 11% RH. Moisture sorption trends in samples over the experiment duration while held in the preservation jars (61% RH) were also evaluated. In this study, the gravimetric method was used to determine the dry weight of samples with different compositions (expressed in terms of mass of water per mass of solids). […] (below the crystallization temperature of Trehalose). The sample was then cooled in a desiccator containing phosphorus pentoxide (P2O5) which maintained the humidity near 0% RH. By recording the initial wet mass and the bake-out dry mass, the dry weight of each composition was obtained.

For data set [2] the following is noted: 37.5% RH; cited from earlier work.
For data set [3] the following is noted: 25° C.; cited from earlier work.
The conditions of data set [4]: remained constant in RH environment of up to 92%; cited from earlier work.

As to `C[N+](C)(C)CCO.O=P([O-])(O)O` [pure choline dihydrogen phosphate, choline dihydrogen phosphate], in data set [1] (61% RH), the “hygroscopicity (moisture uptake)” value was “very hygroscopic”. Further, the crystallization observed entry in data set [1] (61% RH, pure salt without trehalose) was “no crystallization”.

Turning to `OC[C@H]1O[C@H](O[C@H]2O[C@H](CO)[C@@H](O)[C@H](O)[C@H]2O)[C@H](O)[C@@H](O)[C@@H]1O` [pure trehalose, trehalose], the “crystals on DSC thermograms” value in data set [2] is given as “did not show any crystals”. For the same compound, the “water absorbed to enable the formation of trehalose dihydrate” value in data set [1] (61% RH) is on record as “around 0.105 gH2O/g trehalose”. In data set [1] (61% RH, level the moisture content fell to after crystallization (pure trehalose: during the following 18 days)), the “moisture content level after crystallization” value is given as “around 0.105 gH2O/gdw”. In addition, in data set [1] (storage at 61% RH after microwave drying at 11% RH), the “time (day) of onset of sugar crystallization, observed visually” value is given as 1 days. For the same compound, in data set [3], the “RH at which isotherm exhibited a plateau (formation of trehalose dihydrate crystals)” value was no less than 44 % RH.

As for `OC[C@H]1O[C@H](O[C@H]2O[C@H](CO)[C@@H](O)[C@H](O)[C@H]2O)[C@H](O)[C@@H](O)[C@@H]1O` [trehalose dihydrate], the “moisture content of trehalose dihydrate” value in data set [4] is 9.54%.

The record behind these values is US20180192641A1, “Compositions and Methods for Preservation of Materials in the Amorphous State” (University of North Carolina Charlotte, priority 2014, published 2018).
